The test concerns the target human lysosomal HexA/HexB. The class given is biochemical. The conditions noted are these: read-out: Hex A/B, Ki.

Ki data for 1 compound are collected here from PMC2691177 (Biochemical Journal, 2009).

Consider `CC(=O)N[C@H]1/C(=N/OC(=O)Nc2ccccc2)O[C@H](CO)[C@@H](O)[C@@H]1O` [PUGNAc, O-(2-acetamido-2-deoxy-D-glucopyranosylidene)amino N-phenylcarbamate], for which the Ki was 25 ± 2.5 nM.
